From ChEMBL document CHEMBL1127236, “Synthesis and biological activities of fluorine-substituted ()-indolactam-V, the core structure of tumor promoter teleocidins” (1994) come the findings set out here.

Test [1] deals with HeLa. Description: Compound was tested for stimulation of the incorporation of 32Pi into phospholipids of HeLa cells at 10E-4 M concentration. It counts as functional, Homo sapiens.
For test [2], the system named is HeLa. Put plainly: Compound was tested for stimulation of the incorporation of 32Pi into phospholipids of HeLa cells at 10E-5 M concentration. It counts as functional, Homo sapiens.
Test [3] concerns HeLa. Description: Compound was tested for stimulation of the incorporation of 32Pi into phospholipids of HeLa cells at 10E-6 M concentration. It counts as functional, Homo sapiens.
Test [4] relates to HeLa. Put plainly: Compound was tested for stimulation of the incorporation of 32Pi into phospholipids of HeLa cells at 10E-7 M concentration. It counts as functional, Homo sapiens.
The species entered for test [5] is Mus musculus. Description: In vitro binding affinity towards TPA receptor in mouse epidermal particulate fraction using [3H]TPA as radioligand.
Test [6] concerns HeLa. Description: Compound was tested for stimulation of the incorporation of 32Pi into phospholipids of HeLa cells at 10E-8 M concentration. The class given is functional, Homo sapiens.

In the case of `CC(C)[C@H]1C(=O)N[C@H](CO)Cc2c[nH]c3ccc(F)c(c23)N1C`, the Relativity is listed as 5.32 c.p.m. mg-1 in test [1], 3.57 c.p.m. mg-1 in test [2], 1.28 c.p.m. mg-1 in test [3] and 1.29 c.p.m. mg-1 in test [4]. In addition, in test [5], the pID50 amounted to 4.41.

As to `CC(C)[C@H]1C(=O)N[C@H](CO)Cc2c[nH]c3cccc(c23)N1C` [INDOLACTUM], the Relativity in test [2] turned out to be 7.82 c.p.m. mg-1; in test [3], 4.69 c.p.m. mg-1; in test [4], 1.36 c.p.m. mg-1; in test [6], 1.04 c.p.m. mg-1. In test [5], this molecule showed a pID50 of 5.97.

On to `CC(C)[C@H]1C(=O)N[C@H](CO)Cc2c[nH]c3cc(F)cc(c23)N1C`, for which the Relativity is 6.87 c.p.m. mg-1 in test [2], 7.43 c.p.m. mg-1 in test [3], 1.78 c.p.m. mg-1 in test [4] and 1.18 c.p.m. mg-1 in test [6]. The molecule further came in with a pID50 in test [5] of 5.85.
